In experiment [1] the target is T1, Transcriptional regulator MvfR (Pseudomonas aeruginosa PA14, UniProt A0A072ZLE6).
T1 sequence (A0A072ZLE6 whole entry): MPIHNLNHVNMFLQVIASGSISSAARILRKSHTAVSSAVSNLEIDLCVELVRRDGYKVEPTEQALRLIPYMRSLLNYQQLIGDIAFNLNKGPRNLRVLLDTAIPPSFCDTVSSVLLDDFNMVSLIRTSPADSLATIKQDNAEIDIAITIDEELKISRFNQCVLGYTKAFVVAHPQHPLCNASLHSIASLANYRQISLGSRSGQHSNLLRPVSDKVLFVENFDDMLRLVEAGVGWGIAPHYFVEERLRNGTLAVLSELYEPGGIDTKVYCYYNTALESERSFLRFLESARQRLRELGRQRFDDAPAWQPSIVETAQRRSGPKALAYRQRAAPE
Description: Inhibition of PqsR-mediated quorum sensing system in Pseudomonas aeruginosa PAO1 assessed as inhibition of pyocyanin production at 20 uM incubated for 24 hrs by absorbance based assay.

Experiment [2] concerns the target T2, Transcriptional activator protein TraR (Agrobacterium tumefaciens, UniProt P33905).
T2 sequence (P33905 whole entry): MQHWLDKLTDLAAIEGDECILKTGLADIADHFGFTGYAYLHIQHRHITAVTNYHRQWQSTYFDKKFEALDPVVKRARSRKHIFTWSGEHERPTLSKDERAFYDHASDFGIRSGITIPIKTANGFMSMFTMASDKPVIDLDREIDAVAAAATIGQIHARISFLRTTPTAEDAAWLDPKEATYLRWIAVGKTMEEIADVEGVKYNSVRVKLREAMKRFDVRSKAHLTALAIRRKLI
Description: Antagonist activity at Agrobacterium tumefaciens TraR receptor.

Experiment [3] can be described thus: Inhibition of quorum sensing system in Vibrio fischeri. Also on record: species or system Aliivibrio fischeri.
Experiment [4] concerns the target T3, Transcriptional activator protein LasR (Pseudomonas aeruginosa (strain ATCC 15692 / PAO1 / 1C / PRS 101 / LMG12228), UniProt P25084).
T3 sequence (P25084 whole entry): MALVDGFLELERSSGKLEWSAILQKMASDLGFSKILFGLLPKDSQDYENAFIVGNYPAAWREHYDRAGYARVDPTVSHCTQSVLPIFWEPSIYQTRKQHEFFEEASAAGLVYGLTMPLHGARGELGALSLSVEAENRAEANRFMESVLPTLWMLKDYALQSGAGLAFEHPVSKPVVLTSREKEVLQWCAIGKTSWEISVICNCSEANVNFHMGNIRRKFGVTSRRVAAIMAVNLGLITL
The experiment in a line: Inhibition of LasR-mediated quorum sensing system in Pseudomonas aeruginosa PAO1 assessed as inhibition of pyocyanin production incubated for 24 hrs by absorbance based assay.

The nature of experiment [5]: Inhibition of quorum sensing system in Pseudomonas aeruginosa PAO1 transfected with lasB-GFP by measuring reduction in fluorescence intensity measured for 16 hrs by fluorescence assay.
Experiment [6] concerns the target T1, Transcriptional regulator MvfR. Description: Antagonist activity at PqsR in wild-type Pseudomonas aeruginosa PAO1-L assessed as reduction in HHQ level at 0.1 uM by LCMS/MS analysis.
For experiment [7] the target is unchanged. Description: Inhibition of PqsR-mediated quorum sensing system in Pseudomonas aeruginosa PAO1 assessed as inhibition of pyocyanin production incubated for 24 hrs by absorbance based assay.
A short description of experiment [8]: Inhibition of quorum sensing system in Pseudomonas aeruginosa PAO1.
Experiment [9] concerns the target T1, Transcriptional regulator MvfR. Description: Antagonist activity at PqsR in Pseudomonas aeruginosa IPCD48 clinical isolate assessed as reduction in PQS level at 0.1 uM by LCMS/MS analysis.
Experiment [10] shares this target. The experiment in a line: Antagonist activity at PqsR in wild-type Pseudomonas aeruginosa PAO1 assessed as reduction in AQ level.
A short description of experiment [11]: Inhibition of quorum sensing system in Chromobacterium violaceum CV026 assessed as reduction in violacein production.
A further experiment has as its system Pseudomonas aeruginosa. The experiment in a line: Antibiofilm activity against Pseudomonas aeruginosa PAO1 assessed as inhibition of biofilm formation at 50 uM incubated for 24 hrs by crystal violet staining based absorbance assay relative to control. The experiment is classed as functional. Details: scale not given: the % may be the effect or the level left.

Experiment [12] has as its target T3, Transcriptional activator protein LasR. Description: Inhibition of LasR-mediated quorum sensing system in Pseudomonas aeruginosa PAO1 assessed as inhibition of elastase production.
Experiment [13] concerns the target T4, Transcriptional regulator MvfR (Pseudomonas aeruginosa PA14) (UniProt A0A072ZLE6).
T4 sequence (whole entry): T1 sequence (A0A072ZLE6 whole entry)
Description: Inhibition of PqsR-mediated quorum sensing system in Pseudomonas aeruginosa PAO1 assessed as inhibition of pyocyanin production at 100 uM relative to control.

Consider 38 compounds from ChEMBL document CHEMBL5584233, “Amide bioisosteric replacement in the design and synthesis of quorum sensing modulators” (Eur J Med Chem, 2024).

The structures appear in SMILES notation.

As to `Nc1cc(NCC(=O)Nc2ccc(F)cc2)cc(C(F)(F)F)n1`, the IC50 in experiment [1] worked out at 0.48 µM.

The compound `CCCCCCS(=O)(=O)N[C@H]1CCOC1=O` displayed an IC50 in [2] of 0.8 µM.

In the case of `O=C1OCCC1NS(=O)(=O)CCc1ccccc1` (stereo not drawn), half-maximal inhibition in experiment [3] (IC50) was put at 3 µM.

On to `CO[C@H]1O[C@H](CNS(=O)(=O)c2c(C)cc(C)cc2C)[C@@H](O)[C@H](O)[C@@H]1O`, for which the IC50 in [4] stood at 4 µM.

For the compound `O=C(NCc1cc(F)cc(F)c1)c1ccccc1[N+](=O)[O-]`, 6.6 µM corresponded to half-maximal inhibition in experiment [5] (IC50).

For `CCCCCCOC(=O)N[C@H]1CCOC1=O`, in experiment [6], the IC50 amounted to 73 µM.

For `FC(F)(F)c1cc(NCc2cn(-c3ccc(Oc4ccccc4)cc3)nn2)ccn1`, the IC50 in experiment [1] was determined as 0.011 µM.

`CCCCCS(=O)(=O)NC1CCOC1=O` (stereo not drawn): the IC50 in experiment [3] amounted to 2 µM.

In experiment [5], `O=C(NCCc1ccc(Br)cc1)c1ccccc1[N+](=O)[O-]` returned an IC50 of 4.8 µM.

In the case of `CCCCCNC(=O)NC1CCOC1=O` (stereo not drawn), the IC50 in experiment [7] was found to be 1.1 µM.

`CCCCCCCCCCS(=O)(=O)N[C@H]1CCOC1=O` yielded an IC50 in experiment [8] of 1.1 µM.

As for `CCOC(=O)CC(=O)c1ccccc1`, the IC50 in experiment [9] worked out at 76 µM.

For the compound `O=C(Oc1c(Br)cc(Br)cc1CNC(=O)c1ccccc1[N+](=O)[O-])c1ccccc1Cl`, the IC50 in [10] is 0.038 µM.

Regarding `Fc1ccc(-n2cc(CNc3ccnc(C(F)(F)F)c3)nn2)cc1`, in experiment [1], the IC50 worked out at 0.196 µM.

As for `CCCCCCCCCCCCn1nnc(CC(=O)O)n1`, the IC50 in experiment [10] was found to be 0.03 µM.

Take `CCCCCCc1cncn1C1CCOC1=O` (stereo not drawn): the IC50 in experiment [1] is 110 µM.

As for `O=C(N[C@H]1CCOC1=O)SCc1ccc([N+](=O)[O-])cc1`, in [6], the IC50 stood at 23 µM.

Take `O=C(CN1CCOCC1)Nc1cccc([N+](=O)[O-])c1`: in experiment [9], the IC50 is > 483 µM.

On to `CCOC(=O)CC(=O)c1ccc(F)cc1`, for which the IC50 in [9] is 23 µM.

Consider `O=C(CN1CCOCC1)Oc1cccc([N+](=O)[O-])c1`, for which the IC50 in experiment [9] was determined as 22 µM.

As for `O=C(Nc1ccc(S(=O)(=O)N[C@H]2CCOC2=O)cc1)c1sccc1Cl`, the half-maximal inhibitory concentration (IC50) in experiment [11] was 6.2 µM.

`CCCCS(=O)(=O)N[C@H]1CCOC1=O`: 0.6 µM corresponded to half-maximal inhibition in [2] (IC50).

Turning to `O=C(N[C@H]1CCOC1=O)OCc1ccc([N+](=O)[O-])cc1`, the IC50 in experiment [6] is 22 µM.

As to `O=C(Nc1ccc(F)cc1)c1cc(=O)c2ccccc2o1`, the Activity in the experiment on Pseudomonas aeruginosa is listed as 73.3%.

For `C[C@@H]1O[C@H](CNC(=O)/C=C/c2ccccc2)[C@@H](O)[C@H](O)[C@@H]1O`, the IC50 in experiment [4] amounted to 88 µM.

Turning to `Cc1cc(C)c(S(=O)(=O)NC[C@H]2O[C@@H](C)[C@@H](O)[C@@H](O)[C@@H]2O)c(C)c1`, the IC50 in experiment [4] was determined as 3 µM.

In the case of `O=[N+]([O-])c1ccccc1S(=O)(=O)Nc1ccc(S(=O)(=O)Nc2nccs2)cc1`, in [12], the IC50 was 60 µM.

As to `CCCCSC(=O)N[C@H]1CCOC1=O`, in experiment [6], the IC50 stood at 45 µM.

On to `O=C(Nc1ccc([N+](=O)[O-])cc1)c1cc(=O)c2ccccc2o1`, for which, in the experiment on Pseudomonas aeruginosa, the Activity was determined as 58.7%.

The compound `CCCCCCCCCS(=O)(=O)N[C@H]1CCOC1=O` displayed an IC50 in [8] of 1 µM.

On to `O=C(NCc1cccc(I)c1)c1ccccc1[N+](=O)[O-]`, for which the IC50 in experiment [5] came out at 6.5 µM.

`O=C(Nc1cc(=O)c2ccccc2o1)c1ccc(F)cc1`: in the experiment on Pseudomonas aeruginosa, the Activity is 65.3%.

In the case of `CCCCCCc1cncn1CC(=O)OCC`, in experiment [1], the IC50 is 87 µM.

In the case of `O=C(Nc1ccc(S(=O)(=O)N[C@H]2CCOC2=O)cc1)c1ccccc1F`, the IC50 in experiment [11] was found to be 1.6 µM.

`CCCCCCNC(=O)NC1CCOC1=O` (stereo not drawn): the IC50 in [7] was determined as 1 µM.

With `CCCCNC(=O)CSc1nc2ccccc2c(=O)n1C1CC1`, in experiment [13], the inhibition turned out to be 62%.

As for `COc1ccc(NC(=O)Cn2cc(CSc3nc4ccccc4c(=O)n3C3CC3)nn2)cc1`, the inhibition in experiment [13] is 74%.

As for `O=C(Nc1cc(=O)c2ccccc2o1)c1ccc([N+](=O)[O-])cc1[N+](=O)[O-]`, the Activity in the experiment on Pseudomonas aeruginosa amounted to 90%.
